# Source: patent US10098883B2, “(Aza)pyridopyrazolopyrimidinones and indazolopyrimidinones and their use” (BAYER PHARMA AKTIENGESELLSCHAFT, priority 2013, dated 2018)
# pIC50: −log10 of the molar value. Structures can show the parent of a compound that is named as a salt.
# Tested on: clot lysis (fibrinolysis) in human citrated plasma, tPA-induced
# Assay: Plasma-based clot lysis assay (5%)
# Format: biochemical
# Details: diluted human citrated plasma (platelet-poor, 5%), fibrinogen 3 μM, CaCl2 10 mM, tPA 0.2 nM, 37° C., OD 405 nm
# Experimental: B-2. Plasma-based Clot Lysis Assay (5%)
# The clot-lysis test system configures the kinetics of clot formation and degradation in vitro and allows quantifying modulation of the process by selected test compounds.
# The test compounds were dissolved in 1% acetic acid and further complemented with an equal volume of DMSO. The resulting stock solutions were serially diluted in 0.5% acetic acid/50% DMSO. 1 μL aliquots of these solutions were placed into 384 well microplates (Greiner, black, transparent bottom), followed by 30 μL of diluted human citrated plasma (platelet-poor, final concentration: 5%; supplemented with fibrinogen, final concentration: 3 μM; dilution buffer: 20 mM HEPES, 150 mM NaCl, 0.01% Brij (pH 7)). The reactions were started by addition of […] of CaCl2 (final concentration: 10 mM), and tPA (tissue plasminogen activator, final concentration: 0.2 nM) in dilution buffer, followed by an additional volume of 20 μL dilution buffer for improved mixing. The reactions were incubated at 37° C. Clot formation and degradation was monitored spectrophotometrically by kinetic optical density measurements at 405 nm. IC50 values were determined by comparing the resulting time courses with the time course of a blank control reaction.
row,SMILES,pIC50
1,"O=c1cc(C2CCNCC2)n2nc3ccc(C(F)(F)F)cc3c2[nH]1 [Example 2, 4-(Piperidin-4-yl)-9-(trifluoromethyl)pyrimido[1,2-b]indazol-2(1H)-one hydrochloride]",7.52
2,"O=c1cc(C2CCNCC2)n2nc3cccc(F)c3c2[nH]1 [Example 4, 10-Fluoro-4-(piperidin-4-yl)pyrimido[1,2-b]indazol-2(1H)-one hydrochloride]",7.55
3,"O=c1cc(C2CCNCC2)n2nc3ccc(Cl)cc3c2[nH]1 [Example 5, 9-Chloro-4-(piperidin-4-yl)pyrimido[1,2-b]indazol-2(1H)-one hydrochloride]",7.43
4,"O=c1cc(C2CCNCC2)n2nc3ccc(F)cc3c2[nH]1 [Example 7, 9-Fluoro-4-(piperidin-4-yl)pyrimido[1,2-b]indazol-2(1H)-one hydrochloride]",7.02
5,"O=c1cc(C2CCNCC2)n2nc3cccnc3c2[nH]1 [Example 9, 7-(Piperidin-4-yl)pyrido[3′,2′:3,4]pyrazolo[1,5-a]pyrimidin-9(10H)-one hydrochloride]",7.44
6,"O=c1cc(C2CCNCC2)n2nc3cc(C(F)(F)F)ccc3c2[nH]1 [Example 11, 4-(Piperidin-4-yl)-8-(trifluoromethyl)pyrimido[1,2-b]indazol-2(1H)-one hydrochloride]",7.59
7,"CC(C)(C)c1ccc2c(n1)nn1c(C3CCNCC3)cc(=O)[nH]c21 [Example 13, 8-tert-Butyl-4-(piperidin-4-yl)pyrido[2′,3′:3,4]pyrazolo[1,5-a]pyrimidin-2(1H)-one hydrochloride]",7.51
8,"Cc1ccc2nn3c(C4CCNCC4)cc(=O)[nH]c3c2c1 [Example 15, 9-Methyl-4-(piperidin-4-yl)pyrimido[1,2-b]indazol-2(1H)-one hydrochloride]",7.32
9,"Cc1nnc2nn3c(C4CCNCC4)cc(=O)[nH]c3c2c1C [Example 17, 3,4-Dimethyl-8-(piperidin-4-yl)pyrimido[1′,2′:1,5]pyrazolo[3,4-c]pyridazin-6(5H)-one hydrochloride]",7.66
10,"O=c1cc(C2CCNCC2)n2nc3cc(F)ccc3c2[nH]1 [Example 18, 8-Fluoro-4-(piperidin-4-yl)pyrimido[1,2-b]indazol-2(1H)-one hydrochloride]",7.42
11,"O=c1cc(C2CCNCC2)n2nc3ccc(Br)cc3c2[nH]1 [Example 19, 9-Bromo-4-(piperidin-4-yl)pyrimido[1,2-b]indazol-2(1H)-one hydrochloride]",7.59
12,"O=c1cc(C2CCNCC2)n2nc3cccc(I)c3c2[nH]1 [Example 20, 10-Iodo-4-(piperidin-4-yl)pyrimido[1,2-b]indazol-2(1H)-one hydrochloride]",7.66
13,"O=c1cc(C2CCNCC2)n2nc3c(Cl)cccc3c2[nH]1 [Example 22, 7-Chloro-4-(piperidin-4-yl)pyrimido[1,2-b]indazol-2(1H)-one hydrochloride]",7.59
14,"Cc1ccc2c(n1)nn1c(C3CCNCC3)cc(=O)[nH]c21 [Example 24, 8-Methyl-4-(piperidin-4-yl)pyrido[2′,3′:3,4]pyrazolo[1,5-a]pyrimidin-2(1H)-one hydrochloride]",7.47
15,"O=c1cc(C2CCNCC2)n2nc3c(Br)cncc3c2[nH]1 [Example 27, 7-Bromo-4-(piperidin-4-yl)pyrido[4′,3′:3,4]pyrazolo[1,5-a]pyrimidin-2(1H)-one hydrochloride]",7.89
16,"O=c1cc(C2CCNCC2)n2nc3c(F)cccc3c2[nH]1 [Example 28, 7-Fluoro-4-(piperidin-4-yl)pyrimido[1,2-b]indazol-2(1H)-one hydrochloride]",7.48
17,"O=c1cc(C2CCNCC2)n2nc3cnccc3c2[nH]1 [Example 29, 4-(Piperidin-4-yl)pyrido[3′,4′:3,4]pyrazolo[1,5-a]pyrimidin-2(1H)-one hydrochloride]",7.55
18,"O=c1cc(C2CCNCC2)n2nc3c(C(F)(F)F)cccc3c2[nH]1 [Example 30, 4-(Piperidin-4-yl)-7-(trifluoromethyl)pyrimido[1,2-b]indazol-2(1H)-one hydrochloride]",7.34
19,"O=c1cc(C2CCNCC2)n2nc3cc(C(F)(F)F)cc([N+](=O)[O-])c3c2[nH]1 [Example 31, 10-Nitro-4-(piperidin-4-yl)-8-(trifluoromethyl)pyrimido[1,2-b]indazol-2(1H)-one hydrochloride]",7.01
20,"Cc1cc(C)c2c(n1)nn1c(C3CCNCC3)cc(=O)[nH]c21 [Example 32, 8,10-Dimethyl-4-(piperidin-4-yl)pyrido[2′,3′:3,4]pyrazolo[1,5-a]pyrimidin-2(1H)-one hydrochloride]",6.68

# Continued, values first:
row,pIC50,SMILES
1,7.46,"CC1CC(c2cc(=O)[nH]c3c4c(Cl)cccc4nn23)CCN1 (single isomer, unassigned; (+)) [Example 101, (+)-Cis-10-Chloro-4-(2-methylpiperidin-4-yl)pyrimido[1,2-b]indazol-2(1H)-one hydrochloride [Enantiomerically Pure Cis-Isomer]]"
2,7.29,"O=c1cc(C2CCNCC2)n2nc3ccccc3c2[nH]1 [Example 1, 4-(Piperidin-4-yl)pyrimido[1,2-b]indazol-2(1H)-one hydrochloride]"
3,7.03,"O=c1cc(C2CCNCC2)n2nc3c(Cl)cc(Cl)cc3c2[nH]1 [Example 6, 7,9-Dichloro-4-(piperidin-4-yl)pyrimido[1,2-b]indazol-2(1H)-one hydrochloride]"
4,7.34,"COc1cccc2nn3c(C4CCNCC4)cc(=O)[nH]c3c12 [Example 8, 10-Methoxy-4-(piperidin-4-yl)pyrimido[1,2-b]indazol-2(1H)-one hydrochloride]"
5,7.49,"O=c1cc(C2CCNCC2)n2nc3cccc(C(F)(F)F)c3c2[nH]1 [Example 12, 4-(Piperidin-4-yl)-10-(trifluoromethyl)pyrimido[1,2-b]indazol-2(1H)-one hydrochloride]"
6,7.30,"Cc1cc(C(F)(F)F)nc2nn3c(C4CCNCC4)cc(=O)[nH]c3c12 [Example 14, 10-Methyl-4-(piperidin-4-yl)-8-(trifluoromethyl)pyrido[2′,3′:3,4]pyrazolo[1,5-a]pyrimidin-2(1H)-one hydrochloride]"
7,7.47,"Nc1ccc2c(c1)nn1c(C3CCNCC3)cc(=O)[nH]c21 [Example 16, 8-Amino-4-(piperidin-4-yl)pyrimido[1,2-b]indazol-2(1H)-one hydrochloride]"
8,7.52,"O=c1cc(C2CCNCC2)n2nc3cc(Br)ccc3c2[nH]1 [Example 21, 8-Bromo-4-(piperidin-4-yl)pyrimido[1,2-b]indazol-2(1H)-one hydrochloride]"
9,7.55,"O=c1cc(C2CCNCC2)n2nc3cc(F)cc(F)c3c2[nH]1 [Example 23, 8,10-Difluoro-4-(piperidin-4-yl)pyrimido[1,2-b]indazol-2(1H)-one hydrochloride]"
10,7.54,"CCOc1cccc2nn3c(C4CCNCC4)cc(=O)[nH]c3c12 [Example 26, 10-Ethoxy-4-(piperidin-4-yl)pyrimido[1,2-b]indazol-2(1H)-one hydrochloride]"

# Same assay, conditions: diluted human citrated plasma (platelet-poor, 5%), fibrinogen 3 μM, CaCl2 10 mM, tPA 0.2 nM, 37° C., OD 405 nm; hydrochloride
row,pIC50,SMILES
1,7.55,"O=c1cc(C2CCNCC2)n2nc3cccc(Cl)c3c2[nH]1 [Example 3, 10-Chloro-4-(piperidin-4-yl)pyrimido[1,2-b]indazol-2(1H)-one hydrochloride]"
2,7.47,"O=c1cc(C2CCNCC2)n2nc3cccc(Br)c3c2[nH]1 [Example 10, 10-Bromo-4-(piperidin-4-yl)pyrimido[1,2-b]indazol-2(1H)-one hydrochloride]"
